This is an account of results in patent US8754089B2, “Heterocyclic compounds and their uses” (Amgen Inc., priority 2009, dated 2014).

Molecules are shown by their SMILES.

One assay deals with PI3Kδ (Homo sapiens (Human), UniProt O00329). Nature of the assay: PI3Kδ Alphascreen assay. The format is biochemical. The protocol: Full length p110 subunits of PI3k α, β and δ, N-terminally labeled with polyHis tag, were coexpressed with p85 with Baculo virus expression vectors in sf9 insect cells. P110/p85 heterodimers were purified by sequential Ni-NTA, Q-HP, Superdex-100 chromatography. Purified α, β and δ isozymes were stored at −20° C. in 20 mM Tris, pH 8, 0.2M NaCl, 50% glycerol, 5 mM DTT, 2 mM Na cholate. […] The y isozyme was purified by sequential Ni-NTA, Superdex-200, Q-HP chromatography. The γ isozyme was stored frozen at −80° C. in NaH2PO4, pH 8, 0.2M NaCl, 1% ethylene glycol, 2 mM β-mercaptoethanol.
A PI3K Alphascreen® assay (PerkinElmer, Waltham, Mass.) was used to measure the activity of a panel of four phosphoinositide 3-kinases: PI3Kα, PI3Kβ, PI3Kγ, and PI3Kδ. Enzyme reaction buffer was prepared using sterile water (Baxter, Deerfield, Ill.) and 50 mM Tris HCl pH 7, 14 mM MgCl2, 2 mM sodium cholate, and 100 mM NaCl. 2 mM DTT was added fresh the day of the experiment. The Alphascreen buffer was made using sterile water and 10 mM Tris HCl pH 7.5, 150 mM NaCl, 0.10% Tween 20, and 30 mM EDTA. 1 mM DTT was added fresh the day of the experiment. Compound source plates used for this assay were 384-well Greiner clear polypropylene plates containing test compounds at 5 mM and diluted 1:2 over 22 concentrations. Columns 23 and 24 contained only DMSO as these wells comprised the positive and negative controls, respectively. Source plates were replicated by transferring 0.5 uL per well into 384-well Optiplates (PerkinElmer, Waltham, Mass.).
Each PI3K isoform was diluted in enzyme reaction buffer to 2× working stocks. […] PI(4,5)P2 (Echelon Biosciences, Salt Lake City, Utah) was diluted to 10 μM and ATP was diluted to 20 μM. This 2× stock was used in the assays for PI3Kα and PI3Kβ. For assay of PI3Kγ and PI3Kδ, PI(4,5)P2 was diluted to 10 μM and ATP was diluted to 8 μM to prepare a similar 2× working stock. Alphascreen reaction solutions were made using beads from the anti-GST Alphascreen kit (PerkinElmer, Waltham, Mass.). Two 4× working stocks of the Alphascreen reagents were made in Alphascreen reaction buffer. In one stock, biotinylated-IP4 (Echelon Biosciences, Salt Lake City, Utah) was diluted to 40 nM and streptavadin-donor beads were diluted to 80 μg/mL. In the second stock, PIP3-binding protein (Echelon Biosciences, Salt Lake City, Utah) was diluted to 40 nM and anti-GST-acceptor beads were diluted to 80 μg/mL.
10 μL/well of the appropriate substrate 2× stock (containing 20 μM ATP for the PI3Kα and β assays and containing 8 μM ATP for the PI3Kγ and δ assays) was then added to Columns 1-24 of all plates. Plates were then incubated at room temperature for 20 minutes. In the dark, 10 μL/well of the donor bead solution was added to columns 1-24 of the plates to quench the enzyme reaction. The plates were incubated at room temperature for 30 minutes. Still in the dark, 10 μL/well of the acceptor bead solution was added to columns 1-24 of the plates. The plates were then incubated in the dark for 1.5 hours. The plates were read on an Envision multimode Plate Reader (PerkinElmer, Waltham, Mass.) using a 680 nm excitation filter and a 520-620 nm emission filter.
In general terms: In Alpha technology, singlet oxygen from a donor bead excites a nearby acceptor bead.

The conditions of assay [1]: in vivo; cited from earlier work.
For assay [2] the following is noted: in vivo; cited from earlier work. The source holds these as a separate data set.
Another assay has as its target p110δ (Homo sapiens (Human), UniProt O00329). The conditions noted are these: cited from earlier work.
Another assay concerns protein kinases. The conditions noted are these: cited from earlier work.
For assay [3] the following is noted: ovalbumin-induced airway inflammation; cited from earlier work.
The test system of assay [4] is neutrophil. The note with it: cited from earlier work.
The subject of assay [5] is neutrophil. The conditions noted are these: cited from earlier work. The source holds these as a separate data set.

Sequence of PI3Kδ (O00329 whole entry): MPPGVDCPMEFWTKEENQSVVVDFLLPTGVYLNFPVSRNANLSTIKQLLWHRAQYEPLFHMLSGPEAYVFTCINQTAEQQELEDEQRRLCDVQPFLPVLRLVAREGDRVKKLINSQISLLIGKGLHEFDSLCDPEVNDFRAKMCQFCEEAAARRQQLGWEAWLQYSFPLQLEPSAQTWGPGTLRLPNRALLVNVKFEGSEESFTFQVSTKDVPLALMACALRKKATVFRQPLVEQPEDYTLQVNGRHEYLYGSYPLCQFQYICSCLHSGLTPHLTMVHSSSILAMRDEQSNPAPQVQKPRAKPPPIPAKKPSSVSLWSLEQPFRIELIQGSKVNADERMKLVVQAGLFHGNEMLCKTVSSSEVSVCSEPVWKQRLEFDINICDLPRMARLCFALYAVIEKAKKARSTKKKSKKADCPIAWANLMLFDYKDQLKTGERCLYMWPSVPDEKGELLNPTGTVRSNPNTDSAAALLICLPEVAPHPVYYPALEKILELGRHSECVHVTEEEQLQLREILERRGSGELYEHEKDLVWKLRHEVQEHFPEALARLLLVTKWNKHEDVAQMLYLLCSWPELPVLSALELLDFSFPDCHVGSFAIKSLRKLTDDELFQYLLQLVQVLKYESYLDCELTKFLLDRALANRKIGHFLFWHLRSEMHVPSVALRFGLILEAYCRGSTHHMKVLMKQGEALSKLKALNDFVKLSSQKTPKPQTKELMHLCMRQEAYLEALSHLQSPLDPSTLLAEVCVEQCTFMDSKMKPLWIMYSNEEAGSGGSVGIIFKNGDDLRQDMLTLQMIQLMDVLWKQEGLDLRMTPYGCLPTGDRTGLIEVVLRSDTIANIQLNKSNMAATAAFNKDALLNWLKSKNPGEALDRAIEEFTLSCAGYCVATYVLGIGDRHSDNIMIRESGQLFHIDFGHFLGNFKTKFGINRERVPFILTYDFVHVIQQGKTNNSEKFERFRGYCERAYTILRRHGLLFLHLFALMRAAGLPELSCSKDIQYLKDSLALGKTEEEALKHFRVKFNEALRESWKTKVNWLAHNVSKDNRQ
Sequence of PI3Kδ (P27986 whole entry partner): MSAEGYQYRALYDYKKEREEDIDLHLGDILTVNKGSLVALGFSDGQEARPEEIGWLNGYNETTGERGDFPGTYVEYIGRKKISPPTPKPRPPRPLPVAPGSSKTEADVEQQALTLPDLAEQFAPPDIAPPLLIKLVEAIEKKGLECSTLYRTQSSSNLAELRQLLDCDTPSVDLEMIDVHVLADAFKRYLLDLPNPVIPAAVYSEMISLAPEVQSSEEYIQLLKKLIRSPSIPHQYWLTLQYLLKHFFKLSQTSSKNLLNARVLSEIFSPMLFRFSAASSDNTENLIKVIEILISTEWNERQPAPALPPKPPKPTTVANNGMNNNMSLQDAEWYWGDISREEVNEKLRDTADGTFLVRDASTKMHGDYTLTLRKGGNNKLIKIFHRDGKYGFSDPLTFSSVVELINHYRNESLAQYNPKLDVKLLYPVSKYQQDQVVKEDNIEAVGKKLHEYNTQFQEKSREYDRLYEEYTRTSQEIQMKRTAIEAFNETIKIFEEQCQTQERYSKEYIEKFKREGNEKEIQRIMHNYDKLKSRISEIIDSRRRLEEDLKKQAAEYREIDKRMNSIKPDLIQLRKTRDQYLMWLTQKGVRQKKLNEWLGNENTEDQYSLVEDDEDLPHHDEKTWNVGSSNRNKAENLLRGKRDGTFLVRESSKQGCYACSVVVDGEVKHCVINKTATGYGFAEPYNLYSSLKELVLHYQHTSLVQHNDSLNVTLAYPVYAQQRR
Sequence of p110δ (O00329 whole entry, looked up, species assumed): as the sequence (O00329 whole entry) above
Sequence of p110δ (P27986 whole entry partner, looked up, species assumed): as the sequence (P27986 whole entry partner) above

In general, Ki refers to a measure of affinity in units of concentration, obtained from inhibition or displacement. Read a high Ki as lower affinity. On PI3Kδ, `Cc1cccc2nc([C@H](C)Nc3ncnc(N)c3C#N)c(-c3ccccc3)c(=O)n12` [4-amino-6-(((1S)-1-(6-methyl-4-oxo-3-phenyl-4H-pyrido[1,2-a]pyrimidin-2-yl)ethyl)amino)-5-pyrimidinecarbonitrile] registered a Ki of 0.005 µM.

At PI3Kδ, `Cc1ccccc1-c1c(CSc2ncnc3[nH]cnc23)nc2cccc(C)n2c1=O` [6-methyl-3-(2-methylphenyl)-2-((9H-purin-6-yl-sulfanyl)methyl)-4H-pyrido[1,2-a]pyrimidin-4-one] displayed an inhibition constant Ki of 9.71 µM.

Take `O=C1NC(=O)/C(=C\c2ccc3nccnc3c2)S1` [AS 605240]: in assay [1], the “efficacy in a mouse model of rheumatoid arthritis” value is listed as “efficacious”. Moreover, the “onset of disease in a model of systemic lupus erythematosis” value in assay [2] is “delay onset of disease”.

For `Cc1ccccc1-n1c(Cn2cnc3c(N)ncnc32)nc2cccc(C)c2c1=O` [IC87114], the “inhibition of p110δ” value on p110δ is recorded as “high nanomolar range (triple digit)”. Also, the “activity against any protein kinases tested” value in the assay with protein kinases is “no activity”. In addition, the “inflammation and disease in a murine model of asthma” value in assay [3] was “significantly ameliorate inflammation and disease”.

`O=c1cc(N2CCOCC2)oc2c(-c3ccccc3)cccc12` [LY294002]: the neutrophil migration result in the assay with neutrophil [4] was “block”. Also, the superoxide release entry with neutrophil [5] is listed as “block”.

On to `COC[C@H]1OC(=O)c2coc3c2[C@@]1(C)C1=C(C3=O)[C@@H]2CCC(=O)[C@@]2(C)C[C@H]1OC(C)=O` [wortmannin], for which, in the assay on neutrophil [4], the neutrophil migration entry is given as “block”. Moreover, in the assay on neutrophil [5], the superoxide release result is listed as “block”.
